For series [1] the following is noted: forms otherwise stable and appropriate; background statement; cited from earlier work.
The subject of the next series is fungus organisms. The settings on record: background statement; cited from earlier work.
A further series is described as follows: physchem. The settings on record: water, pH 2, water.

Results on 2 compounds are retold here after patent US4049898A (priority 1975, dated 1977).

In the case of “Amphotericin B-Calcium-Oxalic Acid Complex [Example 1]”, the “extent of solubilization in methanol” value in “solubility in methanol” (100 mg added to 750 ml methanol) was determined as 40%. In addition, the “extent of solubility in methanol at pH 9.5” value in the series “solubility in methanol” (100 mg in 80 ml methanol, pH adjusted to 9.5 with triethylamine) turned out to be 35%.

For the compound `C[C@@H]1[C@H](O)[C@@H](C)/C=C/C=C/C=C/C=C/C=C/C=C/C=C/[C@H](O[C@@H]2O[C@H](C)[C@@H](O)[C@H](N)[C@@H]2O)C[C@@H]2O[C@](O)(C[C@@H](O)C[C@@H](O)[C@H](O)CC[C@@H](O)C[C@@H](O)CC(=O)O[C@H]1C)C[C@H](O)[C@H]2C(=O)O` [amphotericin B], the “solubility in methanol at pH 9.5 (in words)” value is recorded as “completely soluble”. Also, the “amount soluble in 750 ml of methanol” value in “solubility in methanol” (750 ml methanol) came out at 100 mg. The “water solubility (background, in words)” value in series [1] is “lack of adequate water solubility”. In addition, in the series on fungus organisms, the antifungal properties entry is reported as “powerful antifungal properties” and the “development of resistant strains or forms” value is “apparent inability of fungus organisms to develop readily any strains or forms that are resistant to amphotericin B”. In the series “physchem”, this compound registered a solubility of less than 1000 µg/mL.

By solubility is commonly meant the concentration that dissolves in the medium under given conditions. The low end stands for little dissolved substance, the high end for much dissolved substance.
